Test results from paper PMC10194981, “Chemosensory protein regulates the behavioural response of Frankliniella intonsa and Frankliniella occidentalis to tomato zonate spot virus–Infected pepper (Capsicum annuum)” (PLOS Pathogens, 2023).

What was measured:
[1] = tested on: Anagrus nilaparvatae; parameters: method as in PMID 31300659; conditions: 1:20,000 dilution; cited from earlier work
[2] = target: recombinant wild-type FintCSP1 (Frankliniella intonsa, UniProt A0A891LVF4); experiment: Fluorescence (1-NPN) binding and competitive binding assay, wild-type FintCSP1; conditions: wild-type FintCSP1
Method: FintCSP1 and FoccCSP DNA were released from pEASY-T1/FintCSP1 and pEASY-T1/FoccCSP, respectively, by restriction digestion with BamHI and XhoI and cloned into the pET-30a vector (Invitrogen). The resulting construct was transformed into Transetta (DE3) Escherichia coli competent cells (Transgen). The production of recombinant FintCSP1 and FoccCSP was induced by addition of isopropyl-β-D-1-thiogalactopyranoside (IPTG, 0.2 mM) at 15°C and purified by Ni ion affinity chromatography (Sangon Biotech, Shanghai, China). The target protein was verified by 15% SDS-PAGE, and its concentration was determined with a BCA protein assay kit (Thermo Scientific, Rockford, IL, USA). The recombinant purified protein was stored at −20°C until use.
The binding affinity of FintCSP1 and FoccCSP to the fluorescent probe N-phenyl-1-naphthylamine (1-NPN) was tested using a Spectramax M2 fluorescence spectrometer (Molecular Devices, USA) as reported previously. […] The 1-NPN/FintCSP1 or 1-NPN/FoccCSP mixture was excited at 280 nm, and the emission spectra were recorded at 415 nm. The binding constants (Kd) of FintCSP1 or FoccCSP to 1-NPN were calculated by Scatchard analysis using Prism 5 software (GraphPad, La Jolla, CA, USA). Assuming a protein activity of 100% and that the volatile compound binds to the protein in a 1:1 ratio at saturation, the dissociation constants (Ki) of FintCSP1 or FoccCSP for each ligand were calculated according to the IC50 (the concentration when the ligand replaces 50% of the probe) value of the volatile compounds. The Ki values were calculated according to the following equation: Ki = [IC50]/(1 + [1-NPN]/K1-NPN), where [1-NPN] is the free concentration of 1-NPN, and K1-NPN is the Kd of the 1-NPN/FintCSP1 or 1-NPN/FoccCSP.

[3] = tested on: F. intonsa antennae; experiment: Electroantennogram (EAG) assay; parameters: species or system Frankliniella intonsa
Method: The FintCSP1, FintCSP2, FintOBP, FintOR, FoccCSP, and enhanced green fluorescent protein (EGFP) coding sequences were obtained from GenBank under accession numbers MT199111, MT211602, OK067245, MT211603, AEP27186.1, and U55761.1, respectively. Primers were designed using Primer Premier 5.0, and the T7 promoter sequence (5′-[…]-3′) was added to the 5′ end of each primer (S1 Table). DNA fragments containing T7 promoter sequences were amplified by PCR using pEASY-T1/target gene or pUC-EGFP (preserved in the laboratory) plasmid DNA as template. Then, a double-stranded RNA (dsRNA) was produced from each target gene using the HiScribe T7 Quick High Yield RNA Synthesis Kit (New England Biolabs) according to the manufacturer’s instructions. Six hundred 2-day-old female F. intonsa or two hundred 2-day-old female F. occidentalis adults were anesthetized using CO2 and microinjected with 40 nL (3 μg/μL) dsRNA (dsFintCSP1 dsFintCSP2, dsFintOBP, dsFintOR or dsFoccCSP or dsEGFP) using a CellTram Oil microinjector (Eppendorf, Hamburg, Germany). The injected thrips were kept on broad beans in an artificial climate incubator as described above and used in subsequent RNAi experiments. Three biological replicates were conducted for each treatment with each dsRNA.
At 24 h after dsRNA injection, the electrophysiological responses of F. intonsa antennae to six volatile components (i.e., m-cymene, cis-3-hexenal, (+)-2-carene, trans-2-hexenal, α-phellandrene, and α-humulene) or F. occidentalis antennae to cis-3-hexenal were recorded using EAG. Antennae of female adult thrips were cut off at the base, and the distal terminus was carefully removed. The tested compounds were dissolved in liquid paraffin, with pure liquid paraffin used as a negative control. An Ag-AgCl2 glass electrode and Kaissling electrode solution were used in the experiment according to Tian et al.. The base of the antenna was inserted into the glass capillary filled with electrode solution at the end of the reference electrode; the top of the antenna was connected to the glass capillary at the end of the recording electrode to ensure no bubbles in the glass capillary. After successful connection, the antennae were stimulated with each chemical in the following order: liquid paraffin, volatile compounds, and liquid paraffin. Stimulus time was 0.2 s with each stimulus at 40 s intervals. At least 10 antennae were tested for each volatile compound. The EAG values to volatile compounds were calculated using the following equation: absolute value of EAG reaction = reaction value of the tested sample—average value of two control measurements.

recombinant wild-type FintCSP1, sequence (A0A891LVF4 entry or part of it): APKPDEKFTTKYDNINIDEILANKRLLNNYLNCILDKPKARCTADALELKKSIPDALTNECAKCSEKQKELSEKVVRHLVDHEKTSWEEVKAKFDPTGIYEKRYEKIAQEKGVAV

For `CC/C=C\CC=O` [cis-3-hexenal], the “attraction of Anagrus nilaparvatae (in words)” value [1] is given as “attracts Anagrus nilaparvatae”, the “binding affinity to FintCSP1 (in words)” value ([2]; competitive fluorescence binding assay, classes of Ki) is given as “moderate binding affinity” and the IC50 ([2]; displacement of 1-NPN, protein and 1-NPN both 2 μM, 50 mM Tris-HCl pH 7.4, read-out: IC50) is given as 36.2 ± 1 µM. For the same compound, the Ki ([2]; displacement of 1-NPN, protein and 1-NPN both 2 μM, pH 7.4, calculated from IC50, read-out: Ki) was 28.7 ± 0.79 µM, the EAG peak amplitude ([3]; 10 mg/L in liquid paraffin, excised F. intonsa antennae) was “–0.077 mV” and the “EAG response of FintCSP1-silenced antennae (in words)” value ([3]; dsFintCSP1-injected compared to dsEGFP-injected F. intonsa, 24 h after injection) was “significantly lower response”.
